Experimental data: patent US10138230B2, “Autotaxin inhibitors” (CANCER RESEARCH TECHNOLOGY LIMITED, priority 2015, dated 2018)
Where a name gives a salt, the structure may show the parent alone.

Molecular target: human recombinant ATX (Homo sapiens (Human), UniProt Q13822)
Assay: Autotaxin (ATX) activity Quanta Red assay
Format: biochemical
Settings: 15 μM Rac-1-Palmitoyl-glycero-3-phosphocholine, 2 hours room temperature, determined in duplicate
Procedure: The ATX enzyme assay (Quanta Red assay) described in accompanying Example section may be used to measure the pharmacological effects of the compounds of the present invention.
Autotaxin (ATX) Activity Quanta Red Assay
Measuring ATX activity using an enzyme coupled Quanta Red assay (Thermo Scientific—Pierce Protein Research Products, Product #15159) was determined as follows. 8 μL human recombinant ATX (final concentration 0.8 μg/mL) in 1× Assay buffer containing 50 mM Tris-HCl (pH 8.0), 5 mM CaCl2 was added to an opaque black flat-bottom 384-well plate (Corning, #3575) containing 2 μL test compound in 40% DMSO (4% final DMSO concentration). 10 μL of Quanta Red, Horseradish peroxidase (HRP), Choline Oxidase (CO), Rac-1-Palmitoyl-glycero-3-phosphocholine solution (final concentration 1:250 for Quanta Red, 0.5units/ml HRP, 0.5units/ml CO, 15 μM Rac-1-Palmitoyl-glycero-3-phosphocholine) in 1× assay buffer (as described previously) was added to each well to start the reaction and the plate was incubated at room temperature for 2 hours. The reaction was stopped after 2 hours with a 20 μL addition of Quanta Red Stop solution (1:20 dilution in distilled water). The above-described mixture with DMSO alone was used as a positive control whereas that with DMSO alone without ATX was taken as a negative control.
For each test compound, ten concentrations were measured covering a range of 6.1 nM to 120 μM to determine IC50 values. The top concentration was decreased to 1.2 μM when a test compound's IC50 value was evaluated in low nanomolar range. Fluorescence was determined in a BMG Labtech Pherastar plus plate reader ([…]). Data were analysed using Excel fit software. IC50 values were determined in duplicate.

Row | IC50 [nM] | Compound
1 | 134 | CS(=O)(=O)NCc1ccc(N2C[C@H](NC(=O)c3nnc(CCc4ccc(Cl)cc4)s3)CC2=O)cc1 [Compound F214, 5-[2-(4-chlorophenyl)ethyl]-N-[(3R)-1-[4-(methanesulfonamido-methyl)phenyl]-5-oxo-pyrrolidin-3-yl]-1,3,4-thiadiazole-2-carboxamide]
2 | 3 | O=C(Nc1nnc(CCc2ccc(Cl)cc2)s1)C1CC(=O)N(c2ccc(CN3CCCOCC3)cc2)C1 (centres unmarked) [Compound F101, N-[5-[2-(4-chlorophenyl)ethyl]-1,3,4-thiadiazol-2-yl]-1-[4-(1,4-oxazepan-4-ylmethyl)phenyl]-5-oxo-pyrrolidine-3-carboxamide]
3 | 3 | CCCN(CCC)Cc1ccc(N2CC(C(=O)Nc3nnc(CCc4ccc(Cl)cc4)s3)CC2=O)cc1 (centres unmarked) [Compound F116, N-[5-[2-(4-chlorophenyl)ethyl]-1,3,4-thiadiazol-2-yl]-1-[4-[(dipropyl-amino)methyl]phenyl]-5-oxo-pyrrolidine-3-carboxamide]
4 | 3 | O=C(Nc1nnc(CCc2ccc(Cl)cc2)s1)C1CC(=O)N(c2ccc(CNC3CCOCC3)cc2)C1 (centres unmarked) [Compound F105, 5-oxo-1-{4-[(tetrahydro-pyran-4-ylamino)-methyl]-phenyl}-pyrrolidine-3-carboxylic acid {5-[2-(4-chloro-phenyl)-ethyl]-[1,3,4]thiadiazol-2-yl}-amide; hydrochloride]
5 | 4 | O=C(Nc1nnc(CCC2CCCC2)s1)C1CC(=O)N(c2ccc(CN3CCCOCC3)cc2)C1 (centres unmarked) [Compound F122, N-[5-(2-cyclopentylethyl)-1,3,4-thiadiazol-2-yl]-1-[4-(1,4-oxazepan-4-ylmethyl)phenyl]-5-oxo-pyrrolidine-3-carboxamide]
6 | 615 | O=C(Nc1nnc(CCC2CCCO2)s1)[C@H]1CC(=O)N(c2ccc(CN3CCCCC3)cc2)C1 (stereo partly drawn) [Compound F191, (3S)-5-oxo-1-[4-(1-piperidylmethyl)phenyl]-N-[5-(2-tetrahydrofuran-2-ylethyl)-1,3,4-thiadiazol-2-yl]pyrrolidine-3-carboxamide]
7 | 5 | O=C(NC1CC(=O)N(c2ccc(CN3CC4CC4C3)cc2)C1)c1nnc(CCc2ccc(Cl)cc2)s1 (centres unmarked) [Compound F140, N-[1-[4-(3-azabicyclo[3.1.0]hexan-3-ylmethyl)phenyl]-5-oxo-pyrrolidin-3-yl]-5-[2-(4-chlorophenyl)ethyl]-1,3,4-thiadiazole-2-carboxamide]
8 | 773 | Cn1nc(NC(=O)C2CC(=O)N(c3ccc(CN4CCOCC4)cc3)C2)cc1CCc1ccc(Cl)cc1 (centres unmarked) [Compound F192, N-[5-[2-(4-chlorophenyl)ethyl]-1-methyl-pyrazol-3-yl]-1-[4-(morpholinomethyl)phenyl]-5-oxo-pyrrolidine-3-carboxamide]
9 | 3 | O=C(Nc1nnc(CCC2CCCCC2)s1)C1CC(=O)N(c2ccc(CN3CCCCC3)cc2)C1 (centres unmarked) [Compound F106, N-[5-(2-cyclohexylethyl)-1,3,4-thiadiazol-2-yl]-5-oxo-1-[4-(1-piperidylmethyl)phenyl] pyrrolidine-3-carboxamide]
10 | 9 | CCN(Cc1ccc(N2CC(C(=O)Nc3nnc(CCc4ccc(Cl)cc4)s3)CC2=O)cc1)C(C)C (centres unmarked) [Compound F127, N-[5-[2-(4-chlorophenyl)ethyl]-1,3,4-thiadiazol-2-yl]-1-[4-[[ethyl(isopropyl)amino]methyl]phenyl]-5-oxo-pyrrolidine-3-carobxamide]
11 | 3 | O=C(N[C@H]1CC(=O)N(c2ccc(CN3CCOCC3)cc2)C1)c1nnc(CCc2ccc(Cl)cc2)s1 [Compound F135, 5-[2-(4-chlorophenyl)ethyl]-N-[(3S)-1-[4-(morpholinomethyl)phenyl]-5-oxo-pyrrolidin-3-yl]-1,3,4-thiadiazole-2-carboxamide]
12 | 103 | O=C(NC1CC(=O)N(c2ccc(CN3CCCCC3)cc2)C1)c1nnc(NCc2ccc(Cl)cc2)s1 (centres unmarked) [Compound F196, 5-[(4-chlorophenyl)methyl-amino]-N-[5-oxo-1-[4-(1-piperidylmethyl)phenyl]pyrrolidin-3-yl]-1,3,4-thiadiazole-2-carboxamide]
13 | 2 | O=C(Nc1nnc(CCC2CCCCC2)s1)C1CC(=O)N(c2ccc(CN3CCCOCC3)cc2)C1 (centres unmarked) [Compound F96, N-[5-(2-cyclohexylethyl)-1,3,4-thiadiazol-2-yl]-1-[4-(1,4-oxazepan-4-ylmethyl)phenyl]-5-oxo-pyrrolidine-3-carboxamide]
14 | 1 | CN(Cc1ccc(N2C[C@@H](C(=O)Nc3nnc(CCc4ccc(Cl)cc4)s3)CC2=O)cc1)C1COC1 [Compound F88, (3S)-N-[5-[2-(4-chlorophenyl)ethyl]-1,3,4-thiadiazol-2-yl]-1-[4-[[methyl(oxetan-3-yl)amino]methyl]phenyl]-5-oxo-pyrrolidine-3-carboxamide]
15 | 11 | CN(Cc1ccc(N2C[C@@H](C(=O)Nc3ccc(CCc4ccc(F)cc4)nn3)CC2=O)cc1)C1COC1 [Compound F155, (3S)-N-[6-[2-(4-fluorophenyl)ethyl]pyridazin-3-yl]-1-[4-[[methyl(oxetan-3-yl)amino]methyl]phenyl]-5-oxo-pyrrolidine-3-carboxamide]
16 | 9350 | O=C(NC1CC(=O)N(c2ccc(CN3CCCCC3)cc2)C1)c1cnc(CCc2ccccc2)s1 (centres unmarked) [Compound F206, N-[5-oxo-1-[4-(1-piperidylmethyl)phenyl]pyrrolidin-3-yl]-2-(2-phenylethyl)thiazole-5-carboxamide]
17 | 3 | O=C(Nc1nnc(CCc2ccc(Cl)cc2)s1)C1CC(=O)N(c2ccc(CN3CC4CC4C3)cc2)C1 (centres unmarked) [Compound F110, 1-[4-(3-azabicyclo[3.1.0]hexan-3-ylmethyl)phenyl]-N-[5-[2-(4-chlorophenyl)ethyl]-1,3,4-thiadiazol-2-yl]-5-oxo-pyrrolidine-3-carboxamide]
18 | 2 | O=C(N[C@@H]1CC(=O)N(c2ccc(CN3CCCCC3)cc2)C1)c1cc(CCc2ccc(Cl)cc2)on1 [Compound F143, 5-[2-(4-chlorophenyl)ethyl]-N-[(3R)-5-oxo-1-[4-(1-piperidylmethyl)phenyl]pyrrolidin-3-yl]isoxazole-3-carboxamide]
19 | 1 | O=C(Nc1nnc(CCc2ccc(Cl)cc2)s1)[C@H]1CC(=O)N(c2ccc(CN3CC4(COC4)C3)cc2)C1 [Compound F213, (3S)-N-[5-[2-(4-chlorophenyl)ethyl]-1,3,4-thiadiazol-2-yl]-1-[4-(2-oxa-6-azaspiro[3.3]heptan-6-ylmethyl)phenyl]-5-oxo-pyrrolidine-3-carboxamide]
20 | 293 | COc1ccc(CCc2cc(NC(=O)C3CC(=O)N(c4ccc(CN5CCOCC5)cc4)C3)on2)cc1 (centres unmarked) [Compound F199, N-[3-[2-(4-methoxyphenyl)ethyl]isoxazol-5-yl]-1-[4-(morpholinomethyl)phenyl]-5-oxo-pyrrolidine-3-carboxamide]
21 | 3 | O=C(Nc1nnc(CCC2CCCC2)s1)C1CC(=O)N(c2ccc(CN3CCCC(F)(F)C3)cc2)C1 (centres unmarked) [Compound F115, N-[5-(2-cyclopentylethyl)-1,3,4-thiadiazol-2-yl]-1-[4-[(3,3-difluoro-1-piperidyl)methyl]phenyl]-5-oxo-pyrrolidine-3-carboxamide]
22 | 4 | CN1CCN(Cc2ccc(N3CC(C(=O)Nc4nnc(CCc5ccc(Cl)cc5)s4)CC3=O)cc2)CC1 (centres unmarked) [Compound F117, N-[5-[2-(4-chlorophenyl)ethyl]-1,3,4-thiadiazol-2-yl]-1-[4-[(4-methylpiperazin-1-yl)methyl]phenyl]-5-oxo-pyrrolidine-3-carboxamide]
23 | 3 | O=C(Nc1nnc(CCc2ccc(Cl)cc2)s1)[C@H]1CC(=O)N(c2ccc(CN3CC4CC4C3)cc2)C1 (stereo partly drawn) [Compound F103, (3S)-1-[4-(3-azabicyclo[3.1.0]hexan-3-ylmethyl)phenyl]-N-[5-[2-(4-chlorophenyl)ethyl]-1,3,4-thiadiazol-2-yl]-5-oxo-pyrrolidine-3-carboxamide]
24 | 1080 | O=C(NC1CC(=O)N(c2ccc(CN3CCCCC3)cc2)C1)c1cc(CCc2ccccc2)[nH]n1 (centres unmarked) [Compound F204, 5-phenethyl-1H-pyrazole-3-carboxylic acid [5-oxo-1-(4-piperidin-1-ylmethyl-phenyl)-pyrrolidin-3-yl]-amide hydrochloride]

Row | Compound | IC50 [nM]
25 | O=C(Nc1nnc(CCc2ccc(Cl)cc2)s1)C1CC(=O)N(c2ccc(CN3CCNCC3)cc2)C1 (centres unmarked) [Compound F160, 5-Oxo-1-(4-piperazin-1-ylmethyl-phenyl)-pyrrolidine-3-carboxylic acid {5-[2-(4-chloro-phenyl)-ethyl]-[1,3,4]thiadiazol-2-yl}-amide; dihydrochloride] | 24
26 | O=C(N[C@H]1CCN(c2ccc(CN3CCOCC3)cc2)C1)c1nnc(CCc2ccc(Cl)cc2)s1 [Compound F167, 5-[2-(4-Chloro-phenyl)-ethyl]-[1,3,4]thiadiazole-2-carboxylic acid [(S)-1-(4-morpholin-4-ylmethyl-phenyl)-pyrrolidin-3-yl]-amide] | 16
